Data published in patent publication US10457639B2, “Fluorescent regulators of RASSF1A expression and human cancer cell proliferation” (GEORGETOWN UNIVERSITY, priority 2008, dated 2019).

Experiments:
PC3 cells = test: Cell growth assay, trypan blue dye exclusion count; format: cell-based
Description: Cell Line and Cell Growth Assay. Human prostate cancer cell line PC-3 was procured from the American Type Cell Culture Collection (Manassas, Va.). Cells were grown in IMEM without phenol red (Invitrogen, Carlsbad, Calif.) with 10% fetal bovine serum, 2 mM glutamine, 100 U/mL penicillin G sodium, and 100 μg/mL streptomycin sulfate (Sigma, St. Louis, Mo.) in the presence of 5% CO2 at 37° C. For the cell growth experiment, PC-3 cells were seeded in 6-well plates in triplicate with an initial density of 2×10^3 cells per well. Twenty-four hours after seeding, the attached cells were treated with vehicle (DMSO) or 1, 5, 15, 30 and 60 μM compound. After another twenty-four hours, the cells were washed with 1×PBS, trypsinized and re-suspended in complete growth medium. Trypan blue (0.4%) was added to the cell suspension and both live and dead cells were counted using a hemocytometer.
Compounds 6-10 were screened for growth inhibition in PC-3 human prostate cancer cells using previously reported methods (Table 1; Sinha et al. The Prostate. 2006, 66, 1257-1265). […] This was unexpected, since the methyl moiety of mahanine is in the 3-position. Compound 9, with its GI50 value near that of the compound 6 series (compounds 6, 6a, 8) and a deprotected hydroxyl group in the 2-position, implies that whatever hindrance is imposed by a methyl in the 3-position can be partially overcome if steric bulk at the 2-position is reduced. Indeed, looking at the structure of mahanine, the restraint of the ether cycle may provide enough reduction of apparent bulk at the 2-position to moderate its methyl in the 3-position. Additionally, the ether ring system puts the equivalent of a methyl group in the 1-position, which could also be aiding in the low μM activity of mahanine, if the relatively lower values for the compound 6 series are any indication. Moreover, analyzing the structure of compound 10 based on the same criteria, the double-bonded carbon of the ether cycle in the 3-position along with bulk off the 2-position might explain its lesser growth inhibition when compared to mahanine, while the methyl in the 1-position still gives it better activity than compounds 7 and 7a.

RASSF1A = test: RT-PCR of RASSF1A mRNA in treated PC-3 cells; format: cell-based, human; settings: 5 μM, 24 hours
Description: Representative photograph of an experiment repeated thrice. PC-3 cells were treated 24 hours with either 15 μM for compounds 6, 7, 7a, 8, 9, 10 or 5 μM for compound KED-4-69 (compound 6a) before RNA extraction and RT-PCR amplification.
Reverse Transcriptase-polymerase Chain Reaction (RT-PCR). From PC-3 cells incubated 24 hours with either 15 μM of compound 6, 7, 7a, 8, 9, 10 or 5 μM of KED-4-69 (compound 6a), RNA was extracted with TRIzol solution (Invitrogen, Carlsbad, Calif.) and genes of interest were amplified using 500 ng of total RNA reverse-transcribed to cDNA using a Superscript II kit (Invitrogen) with random hexamers. Human-specific primers were designed using the Primer Quest program and purchased from Integrated DNA Technologies, Inc. (Coralville, Iowa). Their sequences and product band sizes are: cyclin D1 forward primer 5′-[…]-3′ (SEQ ID NO:1), cyclin D1 reverse primer 5′-[…]-3′ (SEQ ID NO:2) (475 bp) and GAPDH forward primer: 5′-CCA […]-3′ (SEQ ID NO:3), GAPDH reverse primer: 5′-TCTAGACGGCAG GTCAGGTCCACC-3′ (SEQ ID NO:4) (598 bp). PCRs were initiated at 94° C. for 2 min, followed by 28 cycles of 94° C. for 1 min, 1 min annealing temperature, 72° C. for 1 min, and final extension at 72° C. for 5 min. The annealing temperature for cyclin D1 and GAPDH was 60° C. Primers and PCR conditions for RASSF1A are used as described by Rong et al. (Oncogene. 2004, 23, 8216-8230). After amplification, PCR products were separated on 1.5% agarose gels and visualized by ethidium bromide fluorescence using the Fuji LAS-1000 Imager. Images were captured and imported to Adobe Photoshop. Band intensities were quantified by using ImageJ software (NIH, Bethesda, Md.).
It has been reported that mRNA levels of RASSF1A correlate to its protein expression levels (Rong et al. Oncogene, 2004, 23: 8216-8230). To investigate the effects of the synthetic compounds on RASSF1A and cyclin D1 expression, levels of the respective mRNAs in treated cells compared to control were analyzed (FIG. 3). […] Because overexpression of cyclin D1 is associated with tumorigenicity and proliferation in a variety of tumors, including prostate cancers, this downregulation provides a cancer treatment method (Chen, Y. et al. Oncogene. 1998, 16, 1913-1920; Musgrove, E. A. et al. Proc. Natl. Acad. Sci. USA. 1994, 91, 8022-8026).

DNMT3a = molecular target: T1, DNMT3a (Homo sapiens, UniProt Q9Y6K1); test: Multiphoton laser imaging, DNMT3a antibody staining; format: cell-based; settings: PC-3 cells, 5 μM (data not shown)
T1 construct: treated with propidium iodide (nuclear localization) and DNMT3a or DNMT3b; endogenous in cells; host or cells: PC-3 human prostate cancer cells
T1 sequence (Q9Y6K1 whole entry, looked up): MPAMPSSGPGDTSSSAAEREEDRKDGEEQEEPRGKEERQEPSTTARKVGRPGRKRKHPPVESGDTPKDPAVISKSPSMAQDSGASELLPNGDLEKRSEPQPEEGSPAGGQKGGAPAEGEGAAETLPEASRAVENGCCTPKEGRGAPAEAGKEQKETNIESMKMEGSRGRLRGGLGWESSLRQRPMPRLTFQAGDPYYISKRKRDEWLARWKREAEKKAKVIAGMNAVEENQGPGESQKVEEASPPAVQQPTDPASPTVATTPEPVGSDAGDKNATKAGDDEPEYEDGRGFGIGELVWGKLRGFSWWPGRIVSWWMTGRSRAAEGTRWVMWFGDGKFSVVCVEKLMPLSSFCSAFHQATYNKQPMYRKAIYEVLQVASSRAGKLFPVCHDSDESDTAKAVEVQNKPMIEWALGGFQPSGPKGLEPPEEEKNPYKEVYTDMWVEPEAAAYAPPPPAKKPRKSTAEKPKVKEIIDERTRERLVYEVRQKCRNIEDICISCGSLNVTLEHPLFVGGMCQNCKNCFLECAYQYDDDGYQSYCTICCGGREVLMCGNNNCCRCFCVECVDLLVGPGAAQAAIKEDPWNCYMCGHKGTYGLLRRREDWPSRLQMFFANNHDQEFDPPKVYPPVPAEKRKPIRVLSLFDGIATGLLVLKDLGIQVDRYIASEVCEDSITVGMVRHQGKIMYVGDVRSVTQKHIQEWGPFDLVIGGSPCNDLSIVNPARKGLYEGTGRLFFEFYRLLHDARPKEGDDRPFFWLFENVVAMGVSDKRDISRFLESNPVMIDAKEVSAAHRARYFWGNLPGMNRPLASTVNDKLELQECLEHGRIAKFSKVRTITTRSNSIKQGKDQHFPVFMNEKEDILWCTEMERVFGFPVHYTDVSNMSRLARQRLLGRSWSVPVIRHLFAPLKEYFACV
Description: Multiphoton laser imaging. After incubating slides with a fibronectin/cortactin solution for 30 minutes, PC-3 cells were plated onto the slides and incubated overnight. The cells were then treated with a 5 μM solution of compound 6a or DMSO control and incubated for 1-6 hour before washing with PBS. The slides were fixed with a 4% formaldehyde solution, washed with PBS then treated with propidium iodide (nuclear localization) and DNMT3a or DNMT3b. The compound was excited at 725 nm with a multiphoton laser and imaged with a 500-550 nm filter.
The dansyl moiety present in compound 6a allows it to visibly fluoresce at 552 nm when excited at 370 nm (FIG. 4A). After treating PC-3 cells with compound 6a, a multiphoton laser was used to excite the compound, and its emission from within the cells was observed by confocal microscopy (FIG. 4B-D). […] To further confirm the hypothesis that compound 6a interaction with DNMT is a crucial factor in the ultimate up-regulation of RASSF1A, the cell samples were stained with antibodies for the DNMT isoforms known to shuttle between the nucleus and the cytoplasm, DNMT3a and DNMT3b (Kim et al., EMBO J, 2002, 21: 4183-4195; Majumber et al., JBC, 2002, 277: 16048-16058). […] Thus, cytoplasmic sequestering of DNMT3b is implied as a mode of action for compound 6a.

In the case of `COc1ccc2c(c1)[nH]c1c(C)c(OS(=O)(=O)c3cccc4c(N(C)C)cccc34)ccc12` [Compound 6a, 7-Methoxy-1-methyl-9H-carbazol-2-yl 5-(dimethylamino)naphthalene-1-sulfonate], the “cytotoxicity compared to mahanine” value (PC3 cells) is reported as “less cytotoxic than mahanine”, the GI50 (PC3 cells; Homo sapiens, PC-3, concentration for 50% growth inhibition in PC3 cells, 24 hours of treatment, mean ± SEM of three observations, read-out: GI50) is reported as 1500 ± 110 nM and the “increase in activity compared to mahanine in inhibition of growth of prostate cancer cells” value (PC3 cells; refers to Table 1) is reported as 5 fold. For the same molecule, the “RASSF1A mRNA level versus control” value (RASSF1A) was “significant increase in RASSF1A” and the DNMT3a localization (DNMT3a) was “No corresponding effect was seen with DNMT3a”.
